This note sets out measurements from patent US8877747B2, “Indenone derivative and pharmaceutical composition comprising same” (Korea Research Institute of Chemical Technology, priority 2009, dated 2014).

Where a name gives a salt, the structure may show the parent alone.

The subject of the assay is MC3T3-E1 cells. Put plainly: ALP activity, differentiation of osteoblast cells. It is filed as cell-based. The conditions noted are these: Mus musculus, MC3T3-E1, 144 h; MC3T3E1 cells treated with 10 μM compound and OF; relates activity to OF-only group (100%); higher = more efficacious. The method, then:
To examine the effects of the inventive indenone derivatives on the differentiation and activation of osteoblast cells, the activity and expression of alkaline phosphatase (ALP), a marker for the differentiation of osteoblast cells, and the bone nodule formation using a mouse derived osteoblast-like cells, MC3T3-E1 (ATCC, Japan) or a primary mouse calvaria derived preosteoblastic cells were observed.
MC3T3-E 1 cells were seeded in a medium containing osteogenic factors (OF) such as ascorbic acids and β-glycerophosphates (b-GP), and each compound of Examples was added thereto at a concentration of 0.1, 1 and 10 μM. The cells were incubated for 6 days (MC3T3-E1 cells) or 7 days (primary mouse calvaria derived preosteoblastic cells) in a 37° C. CO2 incubator. Then, the culture medium was replaced with a fresh medium together with the test compound every two or three days. On the last day, the medium was centrifuged to remove the supernatant, and the cells were washed with PBS. The washed cells were subjected to a 3-cycle freege-thaw treatment using a −70° C. deep freezer to allow enzymes elute in a lysis buffer. The lysed protein was quantified, followed by measurement of ALP activity using 4-nitrophenylphosphate.
Further, a group treated only with DMSO or OF was tested for ALP activities for comparison.
For `O=C1C(c2cccnc2)=C(c2ccc(Cl)cc2)c2ccc(OCCN3CCOCC3)cc21` [Example 28, 6-(2-morpholinoethoxy)-3-(4-chlorophenyl)-2-(pyridin-3-yl)-1H-inden-1-one], the activity at 10 µM was determined as 134%. As for `N#Cc1ccccc1C1=C(c2ccccc2)c2ccc(OCCN3CCOCC3)cc2C1=O` [Example 12, 2-(6-(2-morpholinoethoxy)-1-oxo-3-phenyl-1H-inden-2-yl)benzonitrile], the activity at 10 µM was 365%. As to `O=C1C(c2cccnc2)=C(c2cc(F)cc(F)c2)c2ccc(OCCc3ccccn3)cc21` [Example 62, 3-(3,5-difluorophenyl)-6-(2-(pyridin-2-yl)ethoxy)-2-(pyridin-3-yl)-1H-inden-1-one hydrochloride salt], the activity at 10 µM came out at 90%. `O=C1C(c2ccc(F)c(F)c2)=C(c2ccc(F)cc2)c2ccc(OCCN3CCOCC3)cc21` [Example 26, 6-(2-morpholinoethoxy)-2-(3,4-difluorophenyl)-3-(4-fluorophenyl)-1H-inden-1-one]: the activity at 10 µM came to 79%. Consider `Cc1ccc(C2=C(c3ccc(F)cc3F)c3ccc(OCCN4CCN(S(C)(=O)=O)CC4)cc3C2=O)cc1` [Example 116, 3-(2,4-difluorophenyl)-6-{2-[4-(methylsulfonyl)piperazin-1-yl]ethoxy}-2-p-tolyl-1H-inden-1-one], for which the activity at 10 µM is 71%.

`COc1ccc(C2=C(c3ccc(F)cc3F)c3ccc(OCCN4CCOCC4)cc3C2=O)cc1F` [Example 126, 2-(3-fluoro-4-methoxyphenyl)-3-(2,4-difluorophenyl)-6-[2-(morpholin-4-yl)ethoxy]-1H-inden-1-one]: the activity at 10 µM is 73%.

For the molecule `Cc1ccc(C2=C(c3ccccc3)c3ccc(OCCN4CCOCC4)cc3C2=O)cc1` [Example 11, 6-(2-morpholinoethoxy)-3-phenyl-2-p-tolyl-1H-inden-1-one], the activity at 10 µM is 649%. For the molecule `CS(=O)(=O)N1CCN(CCOc2ccc3c(c2)C(=O)C(c2cncnc2)=C3c2ccc(C(F)(F)F)cc2)CC1` [Example 49, 6-(2-(4-(methylsulfonyl)piperazin-1-yl)ethoxy)-2-(pyrimidin-5-yl)-3-(4-(trifluoromethyl)phenyl)-1H-inden-1-one], the activity at 10 µM worked out at 37%. For the molecule `CS(=O)(=O)N1CCN(CCOc2ccc3c(c2)C(=O)C(c2cnc4ccccc4c2)=C3c2cc(F)cc(F)c2)CC1` [Example 96, 3-(3,5-difluorophenyl)-6-{2-[4-(methylsulfonyl)piperazin-1-yl]ethoxy}-2-(quinolin-3-yl)-1H-inden-1-one hydrochloride salt], the activity at 10 µM worked out at 152%.

With `O=C1C(c2cncnc2)=C(c2ccc(C(F)(F)F)cc2)c2ccc(OCCN3CCOCC3)cc21` [Example 35, 6-(2-morpholinoethoxy)-3-(4-(trifluoromethyl)phenyl)-2-(pyrimidin-5-yl)-1H-inden-1-one], the activity at 10 µM came out at 79%. Regarding `Cc1ccc(C2=C(c3ccc(F)cc3F)c3ccc(OCCN4CCS(=O)(=O)CC4)cc3C2=O)cc1` [Example 112, 3-(2,4-difluorophenyl)-6-[2-(1,1-dioxothiomorpholin-4-yl)ethoxy]-2-p-tolyl-1H-inden-1-one], the activity at 10 µM was 70%. Consider `CS(=O)(=O)N1CCN(CCOc2ccc3c(c2)C(=O)C(c2cncnc2)=C3c2ccc(Cl)cc2)CC1` [Example 54, 3-(4-chlorophenyl)-6-(2-(4-(methylsulfonyl)piperazin-1-yl)ethoxy)-2-(pyrimidin-5-yl)-1H-inden-1-one hydrochloride salt], for which the activity at 10 µM is 62%. In the case of `O=C1C(c2cc3ccccc3o2)=C(c2ccccc2)c2ccc(OCCN3CCOCC3)cc21` [Example 91, 6-(2-morpholinoethoxy)-2-(benzofuran-2-yl)-3-phenyl-1H-inden-1-one] it was 67%; in that of `O=C1C(c2ccc(F)c(F)c2)=C(c2ccc(Cl)cc2)c2ccc(OCCN3CCOCC3)cc21` [Example 29, 6-(2-morpholinoethoxy)-3-(4-chlorophenyl)-2-(3,4-difluorophenyl)-1H-inden-1-one], 84%. Turning to `COc1ccc(C2=C(c3ccc(F)cc3F)c3ccc(OCCC4CCN(S(C)(=O)=O)CC4)cc3C2=O)cc1F` [Example 122, 2-(3-fluoro-4-methoxyphenyl)-3-(2,4-difluorophenyl)-6-{2-[1-(methylsulfonyl)piperidin-4-yl]ethoxy}-1H-inden-1-one], the activity at 10 µM was 203%. For the molecule `O=C1C(c2ccc(Cl)cc2)=C(c2ccccc2)c2ccc(OCCN3CCOCC3)cc21` [Example 23, 6-(2-morpholinoethoxy)-2-(4-chlorophenyl)-3-phenyl-1H-inden-1-one], the activity at 10 µM was determined as 162%. To `O=C1C(c2cccnc2)=C(c2cc(F)cc(F)c2)c2ccc(OCCC3CCOCC3)cc21` [Example 78, 3-(3,5-difluorophenyl)-2-(pyridin-3-yl)-6-(2-(tetrahydro-2H-pyran-4-yl)ethoxy)-1H-inden-1-one] belongs 187%. Turning to `COc1ccc(C2=C(c3cc(F)cc(F)c3)c3ccc(OCCCN4CCN(S(C)(=O)=O)CC4)cc3C2=O)cn1` [Example 107, 3-(3,5-difluorophenyl)-2-(6-methoxypyridin-3-yl)-6-{3-[4-(methylsulfonyl)piperazin-1-yl]propoxy}-1H-inden-1-one hydrochloride salt], the activity at 10 µM is 286%. On to `CN(C)CCCOc1ccc2c(c1)C(=O)C(c1cccnc1)=C2c1ccccc1` [Example 57, 6-(3-(dimethylamino)propoxy)-3-phenyl-2-(pyridin-3-yl)-1H-inden-1-one hydrochloride salt], for which the activity at 10 µM turned out to be 62%.

Consider `COc1ccc(C2=C(c3ccc(F)cc3F)c3ccc(OCCCN4CCN(S(C)(=O)=O)CC4)cc3C2=O)cc1F` [Example 110, 2-(3-fluoro-4-methoxyphenyl)-3-(2,4-difluorophenyl)-6-{3-[4-(methylsulfonyl)piperazin-1-yl]propoxy}-1H-inden-1-one], for which the activity at 10 µM was determined as 207%.

For `O=C1C(c2cccnc2)=C(c2ccccc2)c2ccc(OCCN3CCNCC3)cc21` [Example 46, 6-(2-(piperazin-1-yl)ethoxy)-3-phenyl-2-(pyridin-3-yl)-1H-inden-1-one], the activity at 10 µM was determined as 107%. Consider `O=C1C(c2ccc(Cl)s2)=C(c2ccccc2)c2ccc(OCCN3CCOCC3)cc21` [Example 86, 2-(5-chlorothiophen-2-yl)-6-(2-morpholinoethoxy)-3-phenyl-1H-inden-1-one], for which the activity at 10 µM worked out at 77%. In the case of `COc1ccc(C2=C(c3cc(F)cc(F)c3)c3ccc(OCCC4CCN(S(C)(=O)=O)CC4)cc3C2=O)cn1` [Example 100, 3-(3,5-difluorophenyl)-2-(6-methoxypyridin-3-yl)-6-{2-[1-(methylsulfonyl)piperidin-4-yl]ethoxy}-1H-inden-1-one hydrochloride salt], the activity at 10 µM turned out to be 185%. As for `CC(=O)N1CCC(CCOc2ccc3c(c2)C(=O)C(c2cccnc2)=C3c2cc(F)cc(F)c2)CC1` [Example 72, 6-(2-(1-acetylpiperidin-4-yl)ethoxy)-3-(3,5-difluorophenyl)-2-(pyridin-3-yl)-1H-inden-1-one hydrochloride salt], the activity at 10 µM turned out to be 58%. In the case of `COc1ccc(C2=C(c3cc(F)cc(F)c3)c3ccc(OCCC4CCN(S(C)(=O)=O)CC4)cc3C2=O)cc1F` [Example 102, 3-(3,5-difluorophenyl)-2-(3-fluoro-4-methoxyphenyl)-6-{2-[1-(methylsulfonyl)piperidin-4-yl]ethoxy}-1H-inden-1-one] it was 220%.
